# Assay results reported in patent US4559323A, “A41030 Antibiotics” (Eli Lilly and Company, priority 1984, dated 1985).
# Like-named read-outs stand apart in the source and are kept apart here.
# Columns and labels:
# Escherichia coli EC14 = experiment: Disc-plate sensitivity procedure; assay type: cell-based
# [1] = system: Streptococcus sp. (Group D) 9960; experiment: Disc-plate sensitivity procedure; assay type: cell-based
# [2] = system: Streptococcus pneumoniae Park I; experiment: Disc-plate sensitivity procedure; assay type: cell-based
# Clostridium difficile = assay type: cell-based; details: Table 14; Clostridium difficile 2994
# [3] = mice, administered intraperitoneally
# [4] = system: Peptococcus asaccharolyticus; experiment: Agar-dilution MIC (anaerobes); assay type: cell-based; details: Table 15
# Experimental: The MIC values were determined by the agar-dilution method, and are recorded in Table 15, which follows.
# [5] = system: Streptococcus sp. Group B; experiment: Agar-dilution MIC; assay type: cell-based; details: Table 18, 24 hours
# Text: The in vitro activity of antibiotic A41030 factors A and B against a number of representative aerobic, gram-positive bacteria, including Streptococcus sp. Group D, has been determined using a standard agar-dilution assay.
# Escherichia coli = experiment: Agar-dilution MIC; assay type: cell-based; details: Table 17; 24 hours; Escherichia coli EC14
# [6] = system: Streptococcus sp. (Group D); experiment: Agar-dilution MIC; assay type: cell-based
# Text: (§1) The agar-dilution procedure described by the International Collaborative study (ICS) group was used to determine the minimum inhibitory concentrations (MIC's).
# [7] = system: Haemophilus parainfluenzae; experiment: Agar-dilution MIC; assay type: cell-based; details: Table 18, 24 hours
# [8] = system: Streptococcus pyogenes C203; experiment: Disc-plate sensitivity procedure; assay type: cell-based
# Viridans streptococcus = experiment: Agar-dilution MIC; assay type: cell-based; details: Table 11
# S. pyogenes = experiment: In vivo oral activity against S. pyogenes in mice
# B. thetaiotaomicron = assay type: cell-based
# Text: as §1
# Staphylococcus aureus = experiment: Disc-plate sensitivity procedure; assay type: cell-based; details: Table 8
# Clostridium perfringens = assay type: cell-based; details: Table 14; Clostridium perfringens 81
# pseudorabies = details: in vitro at 20 mcg./ml.
# Shigella flexneri = details: Table 11; Shigella flexneri SH-4
# Text: as §1
smiles,measurement,setting,value
NC1C(=O)NC2Cc3ccc(c(Cl)c3)Oc3cc4cc(c3O)Oc3ccc(cc3Cl)C(O)C3NC(=O)C(NC(=O)C4NC(=O)C(NC2=O)c2cc(O)cc(c2)Oc2cc1ccc2O)c1cc(Cl)c(O)c(c1)-c1c(O)cc(O)cc1C(C(=O)O)NC3=O (stereo not shown) [A41030 factor A],Zone diameter,"Escherichia coli EC14; Table 8, 10 μg./disc",0 mm
same,Zone diameter,"Escherichia coli EC14; Table 8, 100 μg./disc",8.0 mm
same,Zone diameter,"[1]; Table 8, 10 μg./disc",16.4 mm
same,Zone diameter,"[1]; Table 8, 100 μg./disc",20.5 mm
same,Zone diameter,"[2]; Table 8, 10 μg./disc",15.0 mm
same,Zone diameter,"[2]; Table 8, 100 μg./disc",17.0 mm
same,MIC,Clostridium difficile,32 mg/L
same,LD50,[3],> 300 mg/kg
same,acute toxicity,[3],> 300 mg/kg
same,MIC,[4]; Pc. asaccharolyticus 1302,≤ 0.03 mg/L
same,MIC,[4]; Pc. asaccharolyticus 1344,0.5 mg/L
same,MIC,[5]; Streptococcus sp. Group B 5,1 mg/L
same,MIC,[5]; Streptococcus sp. Group B 14,0.06 mg/L
same,MIC,Escherichia coli,128 mg/L
same,MIC,"[6]; Table 11, Streptococcus sp. (Group D) 238",0.25 mg/L
same,MIC,"[6]; Table 11, Streptococcus sp. (Group D) 282",0.25 mg/L
same,MIC,"[6]; Table 11, Streptococcus sp. (Group D) 9901",0.25 mg/L
same,MIC,"[6]; Table 11, Streptococcus sp. (Group D) 12253F",0.25 mg/L
same,MIC,"[6]; Table 11, Streptococcus sp. (Group D) Guze",0.25 mg/L
same,MIC,"[6]; Table 17, 24 hours, Streptococcus sp. Group D 9960",2 mg/L
same,MIC,"[6]; Table 17, 24 hours, Streptococcus sp. Group D X66",1 mg/L
same,MIC,"[6]; Table 18, 24 hours, Streptococcus sp. Group D 2041",0.5 mg/L
same,MIC,"[6]; Table 18, 24 hours, Streptococcus sp. Group D 2058",0.5 mg/L
same,MIC,"[6]; Table 18, 24 hours, Streptococcus sp. Group D 8043",0.25 mg/L
same,MIC,"[6]; Table 18, 24 hours, Streptococcus sp. Group D 9901",1 mg/L
same,MIC,"[6]; Table 18, 24 hours, Streptococcus sp. Group D 9960",0.5 mg/L
same,MIC,"[6]; Table 18, 24 hours, Streptococcus sp. Group D 12253F",0.25 mg/L
same,MIC,"[6]; Table 18, 24 hours, Streptococcus sp. Group D Mx161",0.25 mg/L
same,MIC,"[6]; Table 18, 24 hours, Streptococcus sp. Group D X66",0.25 mg/L
same,MIC,[7]; Haemophilus parainfluenzae 7901,16 mg/L
same,MIC,[7]; Haemophilus parainfluenzae 9796,16 mg/L
same,Zone diameter,"[8]; Table 8, 10 μg./disc",12.0 mm
same,Zone diameter,"[8]; Table 8, 100 μg./disc",15.0 mm
same,MIC,Viridans streptococcus; Viridans streptococcus SM-1134,0.5 mg/L
same,MIC,Viridans streptococcus; Viridans streptococcus SSI-910,0.25 mg/L
same,MIC,Viridans streptococcus; Viridans streptococcus SSII-895,0.25 mg/L
same,in vivo oral activity,S. pyogenes,> 300 mg./kg.X2
same,MIC,"B. thetaiotaomicron; Table 12, 24-hour, B. thetaiotaomicron 1438",64 mg/L
same,MIC,"B. thetaiotaomicron; Table 12, 24-hour, B. thetaiotaomicron 1900A",128 mg/L
same,MIC,"B. thetaiotaomicron; Table 14, Bacteroides thetalotaomicron 1438",64 mg/L
same,Zone diameter,"Staphylococcus aureus; S. aureus 3055 benzylpenicillin-susceptible, 10 μg./disc",17.2 mm
same,Zone diameter,"Staphylococcus aureus; S. aureus 3055 benzylpenicillin-susceptible, 100 μg./disc",20.8 mm
same,Zone diameter,"Staphylococcus aureus; S. aureus 3074 benzylpenicillin-resistant, 10 μg./disc",16.7 mm
same,Zone diameter,"Staphylococcus aureus; S. aureus 3074 benzylpenicillin-resistant, 100 μg./disc",19.8 mm
same,Zone diameter,"Staphylococcus aureus; S. aureus 3130 benzylpenicillin- and methicillin-resistant, 10 μg./disc",17.4 mm
same,Zone diameter,"Staphylococcus aureus; S. aureus 3130 benzylpenicillin- and methicillin-resistant, 100 μg./disc",21.4 mm
same,MIC,Clostridium perfringens,0.5 mg/L
same,activity against pseudorabies,pseudorabies,shown activity
same,MIC,Shigella flexneri,64 mg/L
